Test results from US9169241B2, “Quinolinyloxyphenylsulfonamides” (Max-Planck-Gesellschaft Zur Forderung der Wissenschaften …, priority 2009, dated 2015).

Assays:
Hs578T [1] = experiment: Cell vitality assay (ATP assay, CellTiter-Glo); type: cell-based; conditions: Homo sapiens, Hs-578T; HS578T cell line, 72 h; Table Ib; read-out: IC50 ATP-Assay HS578T after 72 h
Protocol: The CellTiter-Glo® Luminescent Cell Viability Assay (Promega Corporation. Madison, Wis., USA) is method a determining the number of viable cells in culture based on quantification of the ATP being present which is an indicator of metabolically active cells was used according to manufacturers protocol, In detail the assay was performed in a 96 well format were 1000 cells/well were incubated with indicated compound at concentration of 12.5 μM, 6.25 μM, 3.125 μM, 1.56 μM, 0.78 μM, 0.39 μM, 0.195 μM as well as DMSO control for 72 h in 100 μl cell culture medium. IC50 values were calculated as 50% of ATP amount compared to DMSO control.
Protocol for the CellTiter-Glo® Luminescent Cell Viability Assay • 1. Prepare opaque-walled multiwell plates with mammalian cells in culture medium, 100 μl per well for 96-well plates • 2. Prepare control wells containing medium without cells to obtain a value for background luminescence. • 3. Add the compound to be tested to experimental wells, and incubate according to culture protocol. • 4. Equilibrate the plate and its contents at room temperature for approximately 30 minutes. • 5. Add a volume of CellTiter-Glo® Reagent (Promega Corporation. Madison, Wis.) equal to the volume of cell culture medium present in each well. • 6. Mix contents for 2 minutes on an orbital shaker to induce cell lysis. • 7. Allow the plate to incubate at room temperature for 10 minutes to stabilize luminescent signal. • 8. Record luminescence on Microplate Luminometer LB96V (Berthold Tchnologies, Bad Wildbad, Germany). An integration time of 0.1 and 1 second per well

Hs578T [2] = experiment: Wound healing migration assay; type: cell-based; conditions: Homo sapiens, Hs-578T; HS578T cell line; Table Ib
Protocol: This method mimics cell migration during wound healing in vivo. The basic steps involve creating a “wound” in a cell monolayer, capturing the images at the beginning and at regular intervals during cell migration to close the wound, and comparing the images to quantify the migration rate of the cells. In detail, 150000 cell/24 well have been seeded and allowed to form a monolayer overnight. Subsequently a “wound” or “scratch” has been performed with a 1000 μl pipette tip. The STDV of wound size is normally below 10% at time point t0. The assay was stopped by fixation with 0.05% Crystal violet/20% methanol when control scratches were closed. The assay was terminated between 48 h and 72 h depending on the migration potential of the indicated cell line. The “wounds” were visualized with a Zeiss Axiovert S100 microscope (Carl Zeiss UK, Welwyn Garden City, UK). The tested compounds were used at 12.5 μM, 6.25, 3.125 μM and DMSO control. IC50 values have been calculated as 50% wound size in between t0 and t48 or t72.

Hs578T [3] = experiment: Matrigel outgrowth assay/branching assay; type: cell-based; conditions: Homo sapiens, Hs-578T; HS578T cell line; Table Ib; read-out: Total branching inhibition in Matrigel HS578T
Protocol: The Matrigel outgrowth assay is based on the ability of tumor cell to penetrate a solid gel of extracellular matrix proteins mimicking the metastasis formation in vivo. While cells with low invasive potential appear as roundish cell or cell cluster, cells with high invasive potential penetrate the Matrigel and form polymorphic structures. In detail 65 μl of Matrigel matrix (Matrigel™ Matrix, BD Biosciences, Bedford, Mass., USA) with a concentration of 3 mg/ml have been polymerized in 96 well plates for 1 h at 37° C. Subsequently 5000 cell/well were seeded into each well containing cell culture medium and indicated compound with concentrations of 3.125 μM, 1.56 μM and 0.78 μM as well as DMSO control. After 48 h, 72 h and 96 h images of cell were taken on an inverted microscope using a 5× objective (Zeiss Axiovert S100 microscope Carl Zeiss UK, Welwyn Garden City, UK). Only compound concentrations were total branching inhibition was evident were accounted as positive. Method was used as previously described, with some modifications (Thompson E W, et al. Association of increased basement membrane invasiveness with absence of estrogen receptor and expression of vimentin in human breast cancer cell lines. J Cell Physiol 1992; 150:534-44).

SMILES	IC50 (Hs578T [2]) [µM]	melting point [°C]	IC50 (Hs578T [1]) [µM]	IC50 (Hs578T [3]) [µM]
COc1cc2c(Oc3ccc(NS(=O)(=O)c4c(C)nn(C)c4C)cc3F)ccnc2cc1OCCCN1CCC(C)CC1 [Example 160, 1,3,5-Trimethyl-1H-pyrazole-4-sulfonic acid (3-fluoro-4-{6-methoxy-7-[3-(4-methyl-piperidin-1-yl)-propoxy]-quinolin-4-yloxy}-phenyl)-amide]	≤ 12.5	88 to 90	≤ 12.5	10 to 25
COc1cc2c(Oc3ccc(NS(=O)(=O)c4c(C)nn(C)c4C)cc3F)ccnc2cc1OCCCN1CCOCC1 [Example 161, 1,3,5-Trimethyl-1H-pyrazole-4-sulfonic acid {3-fluoro-4-[6-methoxy-7-(3-morpholin-4-yl-propoxy)-quinolin-4-yloxy]-phenyl}-amide]	12.5 to 50	163 to 164	≤ 12.5	10 to 25
COc1cc2c(Oc3ccc(NS(=O)(=O)c4c(C)nn(C)c4C)cc3F)ccnc2cc1OCCCN1CCN(C)CC1 [Example 162, 1,3,5-Trimethyl-1H-pyrazole-4-sulfonic acid (3-fluoro-4-{6-methoxy-7-[3-(4-methyl-piperazin-1-yl)-propoxy]-quinolin-4-yloxy}-phenyl)-amide]	12.5 to 50	80 to 81	≤ 12.5	10 to 25
COc1cc2c(Oc3ccc(NS(=O)(=O)c4ccn(C)n4)cc3F)ccnc2cc1OCCCN1CCCCC1 [Example 163, 1-Methyl-1H-pyrazole-3-sulfonic acid {3-fluoro-4-[6-methoxy-7-(3-piperidin-1-yl-propoxy)-quinolin-4-yloxy]-phenyl}-amide]	12.5 to 50	167 to 168	≤ 12.5	10 to 25
COc1cc2c(Oc3ccc(NS(=O)(=O)c4cnc(C)[nH]4)cc3F)ccnc2cc1OCCCN1CCN(C)CC1 [Example 170, 2-Methyl-3H-imidazole-4-sulfonic acid (3-fluoro-4-{6-methoxy-7-[3-(4-methyl-piperazin-1-yl)-propoxy]-quinolin-4-yloxy}-phenyl)-amide]	12.5 to 50	215 to 217	12.5 to 50	10 to 25
COc1cc2c(Oc3ccc(NS(=O)(=O)c4sc(NC(C)=O)nc4C)cc3F)ccnc2cc1OCCCN(C)C [Example 183, N-(5-{4-[7-(3-Dimethylamino-propoxy)-6-methoxy-quinolin-4-yloxy]-3-fluoro-phenylsulfamoyl}-4-methyl-thiazol-2-yl)-acetamide]	12.5 to 50	164 to 166	12.5 to 50	10 to 25
COc1cc2c(Oc3cc(NS(=O)(=O)c4c(F)cccc4F)ccc3F)ccnc2cc1OCCCN1CCC(C)CC1 [Example 188, 2,6-Difluoro-N-(4-fluoro-3-{6-methoxy-7-[3-(4-methyl-piperidin-1-yl)-propoxy]-quinolin-4-yloxy}-phenyl)-benzenesulfonamide]	≤ 12.5	185 to 186	≤ 12.5	≤ 10
COc1cc2c(Oc3cc(NS(=O)(=O)c4ccccc4OC(F)(F)F)ccc3F)ccnc2cc1OCCCN1CCC(C)CC1 [Example 190, N-(4-Fluoro-3-{6-methoxy-7-[3-(4-methyl-piperidin-1-yl)-propoxy]-quinolin-4-yloxy}-phenyl)-2-trifluoromethoxy-benzenesulfonamide]	12.5 to 50	80 to 82	12.5 to 50	10 to 25
COc1cc2c(Oc3cc(NS(=O)(=O)c4c(Cl)cccc4Cl)ccc3F)ccnc2cc1OCCCN1CCC(C)CC1 [Example 192, 2,6-Dichloro-N-(4-fluoro-3-{6-methoxy-7-[3-(4-methyl-piperidin-1-yl)-propoxy]-quinolin-4-yloxy}-phenyl)-benzenesulfonamide]	12.5 to 50	116 to 118	≤ 12.5	10 to 25
COc1cc2c(Oc3ccc(Cl)c(NS(=O)(=O)c4ccccc4C(F)(F)F)c3)ccnc2cc1OCCCN1CCC(C)CC1 [Example 195, N-(2-Chloro-5-{6-methoxy-7-[3-(4-methyl-piperidin-1-yl)-propoxy]-quinolin-4-yloxy}-phenyl)-2-trifluoromethyl-benzenesulfonamide]	12.5 to 50	179 to 181	12.5 to 50	10 to 25
COc1cc2c(Oc3ccc(Cl)c(NS(=O)(=O)c4ccccc4OC(F)(F)F)c3)ccnc2cc1OCCCN1CCC(C)CC1 [Example 196, N-(2-Chloro-5-{6-methoxy-7-[3-(4-methyl-piperidin-1-yl)-propoxy]-quinolin-4-yloxy}-phenyl)-2-trifluoromethoxy-benzenesulfonamide]	12.5 to 50	123 to 126	12.5 to 50	10 to 25

Further lines, with some results ahead:

IC50 (Hs578T [2]) [µM]	melting point [°C]	SMILES	IC50 (Hs578T [1]) [µM]	IC50 (Hs578T [3]) [µM]
12.5 to 50	165 to 166	COc1cc2c(Oc3ccc(NS(=O)(=O)c4ccn(C)n4)cc3F)ccnc2cc1OCCCN1CCC(C)CC1 [Example 164, 1-Methyl-1H-pyrazole-3-sulfonic acid (3-fluoro-4-{6-methoxy-7-[3-(4-methyl-piperidin-1-yl)-propoxy]-quinolin-4-yloxy}-phenyl)-amide]	≤ 12.5	10 to 25
12.5 to 50	198 to 199	COc1cc2c(Oc3ccc(NS(=O)(=O)c4ccn(C)n4)cc3F)ccnc2cc1OCCCN1CCOCC1 [Example 165, 1-Methyl-1H-pyrazole-3-sulfonic acid {3-fluoro-4-[6-methoxy-7-(3-morpholin-4-yl-propoxy)-quinolin-4-yloxy]-phenyl}-amide]	≤ 12.5	10 to 25
12.5 to 50	157 to 159	COc1cc2c(Oc3ccc(NS(=O)(=O)c4ccn(C)n4)cc3F)ccnc2cc1OCCCN1CCN(C)CC1 [Example 166, 1-Methyl-1H-pyrazole-3-sulfonic acid (3-fluoro-4-{6-methoxy-7-[3-(4-methyl-piperazin-1-yl)-propoxy]-quinolin-4-yloxy}-phenyl)-amide]	≤ 12.5	10 to 25
12.5 to 50	160 to 163	COc1cc2c(Oc3ccc(NS(=O)(=O)c4cnc(C)[nH]4)cc3F)ccnc2cc1OCCCN1CCCCC1 [Example 167, 2-Methyl-3H-imidazole-4-sulfonic acid {3-fluoro-4-[6-methoxy-7-(3-piperidin-1-yl-propoxy)-quinolin-4-yloxy]-phenyl}-amide]	12.5 to 50	10 to 25
12.5 to 50	225 to 226	COc1cc2c(Oc3ccc(NS(=O)(=O)c4cnc(C)[nH]4)cc3F)ccnc2cc1OCCCN1CCC(C)CC1 [Example 168, 2-Methyl-3H-imidazole-4-sulfonic acid (3-fluoro-4-{6-methoxy-7-[3-(4-methyl-piperidin-1-yl)-propoxy]-quinolin-4-yloxy}-phenyl)-amide]	12.5 to 50	10 to 25
12.5 to 50	175 to 177	COc1cc2c(Oc3cc(NS(=O)(=O)c4ccccc4C(F)(F)F)ccc3F)ccnc2cc1OCCCN1CCC(C)CC1 [Example 189, N-(4-Fluoro-3-{6-methoxy-7-[3-(4-methyl-piperidin-1-yl)-propoxy]-quinolin-4-yloxy}-phenyl)-2-trifluoromethyl-benzenesulfonamide]	12.5 to 50	10 to 25
